One assay deals with BRD4 (Homo sapiens (Human), UniProt O60885). The assay is described as follows: TR-FRET in-vitro binding assay for BRD4. The following applies: 45 nM His-Brd4(44-477), acetyl-histone H4 (AcK 5, 8, 12, 16) peptide. In outline: (§1)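 Incubation at 30° C lasted 35 min, followed by TR-FRET measurement; each compound was tested as 8 single-point concentrations.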
For another assay, the target named is BRD2 (Homo sapiens (Human), UniProt P25440). The assay is described as follows: TR-FRET in-vitro binding assay for BRD2. As to conditions: 45 nM His-Brd2(60-472), acetyl-histone H4 (AcK 5, 8, 12, 16) peptide. As for the experimental part: TR-FRET In-Vitro Binding Assays for BRD2, BRD3, and BRD4: All assays were performed in 384-well microtiter plates. […] Liquid handling and incubation steps were done on an Innovadyne Nanodrop Express equipped with a robotic arm (Thermo CatX, Perkin Elmer/Caliper Twister II) and an incubator (Liconic STX40, Thermo Cytomat 2C450). The assay plates were prepared by addition of 50 nl per well of compound solution in 90% DMSO HummingBird nanodispenser (Zinsser Analytic). […] Reactions were incubated at 30° C. for 35 minutes. […] After 35 minutes incubation at 30° C., plates were measured in a Perkin Elmer EnVision multilabel reader. […] The stock solutions were stored at […] if not used immediately. For the test procedure the vials were defrosted and identified by a scanner whereby a working sheet was generated that guided the subsequent working steps. Compound dilutions were made in 96 well plates. This format enabled the assay of maximally […] at 8 concentrations (single points) including 4 reference compounds, if desired (known BET inhibitors from the prior art, for this and other assays of the type disclosed herein). The dilution protocol included the production of “pre-dilution plates”, “master plates” and “assay plates”. Polypropylene 96-well plates were used as pre-dilution plates. […] All dilution steps were done on a HamiltonSTAR robot. […] Identical “assay plates” were then prepared by pipetting 50 nL each of compound dilutions of the “master plates” into 384-well “assay plates” by means of a HummingBird 384-channel dispenser. These plates were used directly for the assay which was performed in a total volume of 13.55 μL.
Chain of BRD2 (P25440 60-472): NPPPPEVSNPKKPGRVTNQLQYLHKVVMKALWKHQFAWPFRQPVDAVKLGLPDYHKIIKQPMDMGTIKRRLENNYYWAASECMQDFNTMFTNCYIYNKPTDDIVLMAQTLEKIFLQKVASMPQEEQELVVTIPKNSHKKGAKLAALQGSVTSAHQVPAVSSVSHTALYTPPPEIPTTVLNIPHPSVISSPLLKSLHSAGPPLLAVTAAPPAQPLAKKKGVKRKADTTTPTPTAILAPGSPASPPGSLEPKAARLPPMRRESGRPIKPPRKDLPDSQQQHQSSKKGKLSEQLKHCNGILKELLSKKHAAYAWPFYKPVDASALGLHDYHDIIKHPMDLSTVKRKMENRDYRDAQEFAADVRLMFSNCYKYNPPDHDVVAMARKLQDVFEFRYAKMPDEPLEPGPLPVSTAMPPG
(In general: In TR-FRET formats the signal depends on donor and acceptor labels being close together.)

A further assay concerns the target BRD3 (Homo sapiens (Human), UniProt Q15059). The assay is described as follows: TR-FRET in-vitro binding assay for BRD3. As to conditions: 45 nM His-Brd3(20-477), acetyl-histone H4 (AcK 5, 8, 12, 16) peptide. Summed up: as §1
A further assay deals with MV-4-11. The experiment in a line: Cell growth inhibition assay (CellTiter-Glo), MV-4-11. Type of assay: cell-based, human. The following applies: MV-4-11 cells, 4 days; for GI50: Homo sapiens, MV4-11, 96 h, half-maximal growth inhibition; for MV-4-11 TGI: total growth inhibition. In outline:
(§2)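 Seed cells in their own media; add compound as 3-fold dilutions from 10 μM (0.1% DMSO final). Incubate 4 days at 37 °C, 5% CO2, then add CTG and read luminescence. Subtract no-cell background, correct to a day 0 plate, and fit IC50 and TGI.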
(In ATP-based viability assays light output follows the ATP content of the culture.)

The next assay concerns THP-1. The assay is described as follows: Cell growth inhibition assay (CellTiter-Glo), THP-1. In kind it is cell-based, human. The following applies: THP-1 cells, 4 days; for GI50: Homo sapiens, 96 h, half-maximal growth inhibition; for THP-1 TGI: total growth inhibition. In outline: as §2
Another assay relates to K-562. The assay is described as follows: Cell growth inhibition assay (CellTiter-Glo), K-562. In kind it is cell-based, human. As to conditions: K-562 cells, 4 days; for GI50: Homo sapiens, K562, 96 h, half-maximal growth inhibition; for K-562 TGI: total growth inhibition. Summed up:
as §2

A further assay concerns the target CREBBP (Homo sapiens (Human), UniProt Q92793). The experiment in a line: AlphaScreen in-vitro binding assay for CREBBP. The following applies: 324 nM His-CREBBP (1081-1197), acetyl-histone H4 (AcK 5, 8, 12) peptide. Summed up:
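IC50 values were derived by non-linear regression of percent inhibition across 8 compound concentrations. Protein was His-tagged CREBBP bromodomain (1081-1197), peptide acetyl-histone H4 (AcK 5, 8, 12), in HEPES pH 7.5 buffer. Read-out was AlphaScreen with Ni-chelate acceptor and streptavidin donor beads, 35 min at 30° C then 60 min at RT.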
(In general: Bead proximity is the source of the signal in Alpha formats.)

Chain of BRD3 (Q15059 20-477): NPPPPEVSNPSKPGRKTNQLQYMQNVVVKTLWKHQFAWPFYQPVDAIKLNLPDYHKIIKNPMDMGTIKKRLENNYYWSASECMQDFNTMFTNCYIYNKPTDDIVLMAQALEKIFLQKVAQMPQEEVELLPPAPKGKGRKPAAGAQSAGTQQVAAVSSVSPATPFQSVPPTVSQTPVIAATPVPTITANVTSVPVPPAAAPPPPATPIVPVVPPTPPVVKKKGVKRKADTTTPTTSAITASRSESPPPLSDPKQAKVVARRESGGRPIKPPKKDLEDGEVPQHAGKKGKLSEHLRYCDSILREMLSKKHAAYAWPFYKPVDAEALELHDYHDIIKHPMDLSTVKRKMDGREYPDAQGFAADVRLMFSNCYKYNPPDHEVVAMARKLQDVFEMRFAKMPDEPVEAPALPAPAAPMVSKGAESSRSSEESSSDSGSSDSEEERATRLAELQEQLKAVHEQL
Chain of CREBBP (Q92793 1081-1197): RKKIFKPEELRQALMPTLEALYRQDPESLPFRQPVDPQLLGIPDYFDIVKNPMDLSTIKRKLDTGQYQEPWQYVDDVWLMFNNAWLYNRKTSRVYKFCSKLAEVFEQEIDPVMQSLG

With `Cc1cc(N2C(=O)c3cc(-c4cccc(=O)n4C)n(C)c3C2c2ccc(Cl)cc2)cn(C)c1=O` (stereo not shown) [Example 48, 6-(4-chlorophenyl)-5-(1,5-dimethyl-6-oxo-1,6-dihydropyridin-3-yl)-1-methyl-2-(1-methyl-6-oxo-1,6-dihydropyridin-2-yl)-5,6-dihydropyrrolo[3,4-b]pyrrol-4(1H)-one], the IC50 at BRD4 was determined as 110 nM; on BRD2, 91 nM; at BRD3 it was 76 nM. For the same molecule, the GI50 came out at 150 nM in the assay on MV-4-11, 711 nM with THP-1 and 1680 nM in the assay on K-562. In addition, in the assay on MV-4-11, the “MV-4-11 TGI” value was 270 nM. Further, the “THP-1 TGI” value in the assay with THP-1 was found to be 1160 nM. In addition, the “K-562 TGI” value in the assay with K-562 was >10000 nM.
With `Cc1cc(N2C(=O)c3cc(-c4ccnc(C(F)(F)F)n4)n(C)c3C2c2ccc(Cl)cc2)cn(C)c1=O` (stereo not shown) [Example 49, 6-(4-chlorophenyl)-5-(1,5-dimethyl-6-oxo-1,6-dihydropyridin-3-yl)-1-methyl-2-(2-(trifluoromethyl)pyrimidin-4-yl)-5,6-dihydropyrrolo[3,4-b]pyrrol-4(1H)-one], the IC50 amounted to 83 nM on BRD4, 76 nM at BRD2 and 75 nM at BRD3. The GI50 in the assay on MV-4-11 turned out to be 92.3 nM; in the assay on THP-1 it was 169 nM; in the assay on K-562, 386 nM. The “MV-4-11 TGI” value with MV-4-11 was found to be 134 nM. Besides, the “THP-1 TGI” value in the assay on THP-1 was 301 nM. Also, in the assay with K-562, the “K-562 TGI” value was >10000 nM.
In the case of `Cc1cc(N2C(=O)c3cc(-c4cccc(N(C)C)n4)n(C)c3C2c2ccc(Cl)cc2)cn(C)c1=O` (stereo not shown) [Example 51, 6-(4-chlorophenyl)-5-(1,5-dimethyl-6-oxo-1,6-dihydropyridin-3-yl)-2-(6-(dimethylamino)pyridin-2-yl)-1-methyl-5,6-dihydropyrrolo[3,4-b]pyrrol-4(1H)-one], the IC50 at BRD4 is 33 nM; at BRD2, 32 nM; on BRD3 it was 38 nM. The GI50 in the assay with MV-4-11 worked out at 88.1 nM; in the assay on THP-1, 104 nM; with K-562 it was 449 nM. Further, the “MV-4-11 TGI” value in the assay on MV-4-11 was determined as 116 nM. The “THP-1 TGI” value with THP-1 was found to be 165 nM. Moreover, the “K-562 TGI” value in the assay with K-562 is >10000 nM.
For the molecule `Cc1cc(N2C(=O)c3cc(-c4cnc(N(C)C)nc4)n(C)c3C2c2ccc(Cl)cc2)cn(C)c1=O` (stereo not shown) [Example 57, 6-(4-chlorophenyl)-5-(1,5-dimethyl-6-oxo-1,6-dihydropyridin-3-yl)-2-(2-(dimethylamino)pyrimidin-5-yl)-1-methyl-5,6-dihydropyrrolo[3,4-b]pyrrol-4(1H)-one], the IC50 was found to be 59 nM at BRD4, 50 nM at BRD2 and 54 nM on BRD3. For the same molecule, the GI50 was 37.6 nM with MV-4-11, 76 nM with THP-1 and 200 nM in the assay on K-562. In the assay with MV-4-11, the “MV-4-11 TGI” value worked out at 59.8 nM. In the assay on THP-1, the “THP-1 TGI” value was 126 nM. Also, the “K-562 TGI” value in the assay on K-562 is >10000 nM.
For `COc1ccc(-c2cc3c(n2C)C(c2ccc(Cl)cc2)N(c2cc(C)c(=O)n(C)c2)C3=O)cn1` (stereo not shown) [Example 58, 6-(4-chlorophenyl)-5-(1,5-dimethyl-6-oxo-1,6-dihydropyridin-3-yl)-2-(6-methoxypyridin-3-yl)-1-methyl-5,6-dihydropyrrolo[3,4-b]pyrrol-4(1H)-one], the IC50 on BRD4 was determined as 42 nM; on BRD2, 40 nM; at BRD3, 34 nM. The GI50 in the assay on MV-4-11 stood at 18.1 nM; in the assay with THP-1 it was 33.2 nM; with K-562, 133 nM. For the same molecule, the “MV-4-11 TGI” value with MV-4-11 was 33.8 nM. Moreover, in the assay on THP-1, the “THP-1 TGI” value turned out to be 70.4 nM. The “K-562 TGI” value in the assay with K-562 is >10000 nM.
Take `Cc1cc(N2C(=O)c3cc(-c4cccn(C)c4=O)n(C4CC4)c3C2c2ccc(Cl)cc2)cn(C)c1=O` (stereo not shown) [Example 65, 6-(4-chlorophenyl)-1-cyclopropyl-5-(1,5-dimethyl-6-oxo-1,6-dihydropyridin-3-yl)-2-(1-methyl-2-oxo-1,2-dihydropyridin-3-yl)-5,6-dihydropyrrolo[3,4-b]pyrrol-4(1H)-one]: the IC50 at BRD4 came to 220 nM; on BRD2, 120 nM; on BRD3, 200 nM. In addition, the GI50 in the assay with MV-4-11 came to 80.4 nM; with THP-1, 96.2 nM; in the assay on K-562 it was 270 nM. Moreover, the “MV-4-11 TGI” value in the assay on MV-4-11 stood at 128.5 nM. In addition, the “THP-1 TGI” value in the assay on THP-1 came to 167.5 nM. Further, the “K-562 TGI” value in the assay with K-562 was >10000 nM.
Molecule `Cn1cc(-c2cc3c(n2C2CC2)C(c2ccc(Cl)cc2)N(c2cc(Cl)c(=O)n(C)c2)C3=O)ccc1=O` (stereo not shown) [Example 66, 5-(5-chloro-1-methyl-6-oxo-1,6-dihydropyridin-3-yl)-6-(4-chlorophenyl)-1-cyclopropyl-2-(1-methyl-6-oxo-1,6-dihydropyridin-3-yl)-5,6-dihydropyrrolo[3,4-b]pyrrol-4(1H)-one] had an IC50 on BRD2 of 52 nM. On CREBBP, this molecule gave an IC50 of 240 nM. In the assay with MV-4-11, it took 43.9 nM to inhibit growth by half (GI50) and the “MV-4-11 TGI” value was 87.45 nM. Also, in the assay on THP-1, halving of growth (GI50) required 76.4 nM and the “THP-1 TGI” value worked out at 135 nM. Further, in the assay on K-562, halving of growth (GI50) required 250 nM and the “K-562 TGI” value is >10000 nM.
Consider `COc1ccc(C2c3c(ccn3C)C(=O)N2c2cc(Cl)c(=O)n(C)c2)cc1` (stereo not shown) [Example 92, 5-(5-chloro-1-methyl-6-oxo-1,6-dihydropyridin-3-yl)-6-(4-methoxyphenyl)-1-methyl-5,6-dihydropyrrolo[3,4-b]pyrrol-4(1H)-one], for which the IC50 at BRD4 was 890 nM; on BRD2, 850 nM; on BRD3, 690 nM. In addition, the values for the GI50 with MV-4-11, with THP-1 and with K-562 were 655 nM, 680 nM and 2870 nM, respectively. The “MV-4-11 TGI” value in the assay on MV-4-11 came out at 1495 nM. Moreover, the “THP-1 TGI” value with THP-1 came to 2405 nM. Moreover, in the assay on K-562, the “K-562 TGI” value is >10000 nM.
In the case of `CC(=O)Nc1cn(C)c2c1C(=O)N(c1cc(C)c3nnc(C)n3c1)C2c1ccc(Cl)cc1` (stereo not shown) [Example 103, N-(6-(4-chlorophenyl)-5-(3,8-dimethyl-[1,2,4]triazolo[4,3-a]pyridin-6-yl)-1-methyl-4-oxo-1,4,5,6-tetrahydropyrrolo[3,4-b]pyrrol-3-yl)acetamide], the 50% inhibitory concentration (IC50) was 31 nM on BRD2 and 5200 nM on CREBBP. The GI50 with MV-4-11 is 19.9 nM; in the assay with THP-1, 45 nM; in the assay on K-562, 241 nM. For the same molecule, the “MV-4-11 TGI” value with MV-4-11 amounted to 52.6 nM. In addition, the “THP-1 TGI” value with THP-1 came to 119 nM. Further, the “K-562 TGI” value with K-562 is >10000 nM.
`Cc1cc(N2C(=O)c3c(C4CC4)cn(C4CN(C)C4)c3C2c2ccc(Cl)cc2)nc2c1nnn2C` (stereo not shown) [Example 106, 6-(4-chlorophenyl)-3-cyclopropyl-5-(3,7-dimethyl-3H-[1,2,3]triazolo[4,5-b]pyridin-5-yl)-1-(1-methylazetidin-3-yl)-5,6-dihydropyrrolo[3,4-b]pyrrol-4(1H)-one]: the values for the IC50 at BRD4, on BRD2 and on BRD3 were 12 nM, 13 nM and 12 nM, respectively. Besides, the GI50 in the assay with MV-4-11 is 0.522 nM; in the assay on THP-1 it was 1.16 nM; in the assay on K-562, 5.68 nM. Also, in the assay with MV-4-11, the “MV-4-11 TGI” value was determined as 2.23 nM. Besides, the “THP-1 TGI” value in the assay with THP-1 amounted to 3.335 nM. Further, in the assay with K-562, the “K-562 TGI” value is >10000 nM.

For orientation: IC50 means the concentration at which inhibition is half-maximal. A low value points to greater potency. As a reminder, the GI50 is the concentration giving 50% growth inhibition. Low readings indicate more potent growth inhibition, high ones less potent growth inhibition.

(Values after patent publication US9550796B2, “Pyrrolopyrrolone derivatives and their use as BET inhibitors” (NOVARTIS AG, priority 2013, dated 2017).)
